Tests used:
Bcl-XL/Bak-BH3 [1] = molecular target: T1, Bcl-XL/Bak-BH3 (Homo sapiens, UniProt Q07817); assay type: binding
Bcl-XL/Bak-BH3 [2] = molecular target: T1, Bcl-XL/Bak-BH3; conditions: proof-of-concept study; cited from earlier work
[3] = GST-Bcl-XL, fluorescein-labeled Bak-BH3 peptide

T1 sequence (Q07817 whole entry): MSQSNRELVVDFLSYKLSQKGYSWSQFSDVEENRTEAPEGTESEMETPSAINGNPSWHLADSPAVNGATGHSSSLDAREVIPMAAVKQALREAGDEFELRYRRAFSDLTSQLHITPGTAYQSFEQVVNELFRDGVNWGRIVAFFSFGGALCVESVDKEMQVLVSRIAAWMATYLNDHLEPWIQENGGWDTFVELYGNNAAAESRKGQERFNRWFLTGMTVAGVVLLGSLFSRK

SMILES | IC50 (Bcl-XL/Bak-BH3 [1]; [3]) | Ki (Bcl-XL/Bak-BH3 [1]; [3]) | Percentage Inhibition (Bcl-XL/Bak-BH3 [1]; acylsulfonamide at 50 μM concentration, Bcl-XL/Bak-BH3 PPI disruption) | IC50 inhibitory constants (Bcl-XL/Bak-BH3 [2])
CC1(C)CCN(c2ccc(C(=O)NS(=O)(=O)c3ccc(NCCSc4ccccc4)c([N+](=O)[O-])c3)cc2)CC1 [SZ4TA2] | 0.106 ± 0.012 µM | 0.0375 ± 0.005 µM | 100% | nM range
CC1(C)CCN(c2ccc(C(=O)NS(=O)(=O)c3ccc4ccc(S(=O)(=O)NCCSc5ccccc5)cc4c3)cc2)CC1 [SZ7TA2] | – | 11.5 ± 1.4 µM | – | –
[N-]=[N+]=NS(=O)(=O)c1ccc(CN(CCSc2ccccc2)Cc2ccc(S(=O)(=O)NC(=O)c3ccccc3)cc2)cc1 [SZ9TA1] | – | 11.6 ± 1.6 µM | – | –
COc1cc(OC)cc(C(=O)NS(=O)(=O)c2ccc(CN(CCSc3ccccc3)Cc3ccc(S(=O)(=O)N=[N+]=[N-])cc3)cc2)c1 [SZ9TA5] | – | 14.6 ± 1 µM | – | –

Reference: paper PMC3151735 (ACS chemical biology, 2011)
